Data taken from US5681833A, “Benzodiazepine derivatives” (Merck, Sharp & Dohme Ltd., priority 1992, dated 1997).

Legend:
CCK receptor (pancreas) = molecular target: T1, CCK receptor (pancreas) (Rattus norvegicus, UniProt P30551); test: CCK Receptor Binding (Pancreas), inhibition of specific 125I-CCK-8 binding; set-up: species or system rat (male Sprague-Dawley)
T1 construct: The whole pancreas was dissected free of fat tissue and was homogenized; from tissue; host or cells: whole pancreas of male Sprague-Dawley rats, homogenate membranes
T1 sequence (P30551 1-444): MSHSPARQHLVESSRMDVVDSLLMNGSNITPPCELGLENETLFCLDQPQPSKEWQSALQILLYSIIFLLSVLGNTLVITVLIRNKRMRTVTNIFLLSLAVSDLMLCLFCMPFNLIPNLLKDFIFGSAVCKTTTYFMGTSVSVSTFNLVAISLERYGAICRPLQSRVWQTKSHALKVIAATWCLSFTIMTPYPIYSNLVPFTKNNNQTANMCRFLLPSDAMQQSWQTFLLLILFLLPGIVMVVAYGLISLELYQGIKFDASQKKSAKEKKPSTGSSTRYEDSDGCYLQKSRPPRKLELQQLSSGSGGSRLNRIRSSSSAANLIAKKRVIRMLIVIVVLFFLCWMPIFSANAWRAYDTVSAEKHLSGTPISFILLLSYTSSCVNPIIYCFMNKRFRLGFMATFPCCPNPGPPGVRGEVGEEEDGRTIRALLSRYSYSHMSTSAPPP
Description: 1. CCK Receptor Binding (Pancreas)
CCK-8 sulphated was radiolabelled with ^125 I-Bolton Hunter reagent (2000 Ci/mmole). Receptor binding was performed according to Chang and Lotti (Proc. Natl. Acad. Sci. 83, 4923-4926, 1986) with minor modifications.
Male Sprague-Dawley rats (150-200 g) were sacrificed by decapitation. The whole pancreas was dissected free of fat tissue and was homogenized in 25 volumes of ice-cold 10 mM N-2-hydroxyethyl-piperazine-N'-2-ethane sulphonic acid (HEPES) buffer with 0.1% soya bean trypsin inhibitor (pH 7.4 at 25° C.) with a Kinematica Polytron. The homogenates were centrifuged at 47,800 g for 10 min. Pellets were resuspended in 10 volumes of binding assay buffer (20 mM (HEPES)), 1 mM ethylene glycol-bis-(β-aminoethylether-N,N'-tetraacetic acid) (EGTA), 5 mM MgCl2, 150 mM NaCl, bacitracin 0.25 mg/ml, soya bean trypsin inhibitor 0.1 mg/ml, and bovine serum albumin 2 mg/ml pH 6.5 at 25° C.) using a Teflon (trademark) homogenizer, 15 strokes at 500 rpm. The homogenate was further diluted in binding assay buffer to give a final concentration of 0.5 mg original wet weight/1 ml buffer. […] All assays were run in duplicate. The reaction mixtures were incubated at 25° C. for 2 hours and the reaction terminated by rapid filtration (Brandell 24 well cell harvester) over Whatman GF/C filters, washing 3×4 mls with ice-cold 100 Mm NaCl. The radioactivity on the filters was counted with a LKB gamma counter.

CCK receptor (brain) = molecular target: T2, CCK receptor (brain) (Cavia porcellus, UniProt H0VZC5); test: CCK Receptor Binding (Brain), inhibition of specific 125I-CCK-8 binding; set-up: species or system guinea pig (male Hartley)
T2 construct: the cortex was removed and homogenized in 25 mL ice-cold 0.32M sucrose; from tissue; host or cells: cortex of male Hartley guinea pigs, P2 membranes
T2 sequence (H0VZC5 1-426): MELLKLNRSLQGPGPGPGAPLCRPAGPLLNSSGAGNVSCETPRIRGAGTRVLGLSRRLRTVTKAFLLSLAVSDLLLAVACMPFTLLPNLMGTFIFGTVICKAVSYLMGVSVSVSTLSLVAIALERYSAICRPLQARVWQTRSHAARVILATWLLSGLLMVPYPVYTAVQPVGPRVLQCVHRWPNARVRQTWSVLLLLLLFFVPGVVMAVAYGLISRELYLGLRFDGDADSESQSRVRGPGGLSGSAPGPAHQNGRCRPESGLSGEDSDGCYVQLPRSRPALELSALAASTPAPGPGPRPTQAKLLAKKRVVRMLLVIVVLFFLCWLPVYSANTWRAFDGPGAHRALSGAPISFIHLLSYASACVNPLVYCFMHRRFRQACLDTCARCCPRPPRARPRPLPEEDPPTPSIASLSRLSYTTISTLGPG
Description: 2. CCK Receptor Binding (Brain)
CCK-8 sulphated was radiolabelled and the binding was performed according to the description for the pancreas method with minor modifications.
Male Hartley guinea pigs (300-500 g) were sacrificed by decapitation and the cortex was removed and homogenized in 25 mL ice-cold 0.32M sucrose. The homogenates were centrifuged at 1000 g for 10 minutes and the resulting supernatant was recentrifuged at 20,000 g for 20 minutes. The P2 pellet was resuspended in binding assay buffer (20mM HEPES, 5 mM MgCl2, 0.25 mg/ml bacitracin, 1 mM EGTA pH 6.5 at 25° C.), using a Teflon (trademark) homogenizer (5 strokes at 500 rpm) to give a final concentration of 10 mg original wet weight/1.2 ml buffer. […] All assays were run in duplicate. The reaction mixtures were incubated at 25° C. for 2 hours and then the reaction was terminated by rapid filtration (Brandell 24 well cell harvester) on Whatman GF/C filters with 3×5 ml washes of cold 100 mM NaCl. The radioactivity on the filters was counted with a LKB gamma counter.

For `Cc1ccc(NC(=O)N[C@@H]2N=C(c3ccccc3)c3ccccc3N(C)C2=O)cc1Nc1nn[nH]n1` [Example 12, (+)-N-[3(R)-2,3-Dihydro-1-methyl-2-oxo-5-phenyl-1H-1,4-benzodiazepin-3-yl]-N'-[4-methyl-3-{(tetrazol-5-yl)amino}phenyl]urea], the IC50 (CCK receptor (pancreas)) was greater than 3000 nM and the IC50 (CCK receptor (brain)) was 1.09 nM.
